The target in assay [1] is Pasteurella multocida PmST1 mutant D141A (Pasteurella multocida, UniProt Q15KI8, D141A). In words: CMP-Neu5Ac (donor) hydrolysis activity, capillary electrophoresis. To be noted: apparent, Tris-HCl pH 8.5, 37° C., 40 min.
Method: (§4) The reactions were stopped by adding 10 μL of pre-chilled ethanol. The mixtures were incubated on ice for 30 min and centrifuged at 13,000 rpm for 5 min. The supernatants were diluted with borate buffer (25 mM, pH 9.5) and aliquotes of 5 μL each were injected to a Beckman Coulter P/ACE™ MDQ Capillary Electrophoresis system equipped with a capillary (60 cm×75 μm i.d.) and monitored at 254 nm. The apparent kinetic parameters were obtained by fitting the experimental data (the average values of duplicate assay results) into the Michaelis-Menten equation using Grafit 5.0.
The target in assay [2] is Pasteurella multocida PmST1 mutant H311A (Pasteurella multocida, UniProt Q15KI8, H311A). Described as above. To be noted: apparent, Tris-HCl pH 8.5, 37° C., 20 min.
Method: as §4
The target of assay [3] is Pasteurella multocida PmST1 mutant R313Y of SEQ ID NO: 13 (R289Y of Δ24PmST1, SEQ ID NO: 9) (Pasteurella multocida, UniProt Q15KI8, R313Y). In words: α2-3-sialyltransferase activity, LacβMU as acceptor. To be noted: apparent, donor, LacβMU 1 mM, Tris-HCl pH 8.5, 37° C. It counts as biochemical. The method, then:
(§1) To obtain the apparent kinetic parameters of LacβMU as the acceptor for the α2-3-sialyltransferase activity, the kinetic assays were performed in duplicate in reaction mixtures of 10 μL containing Tris-HCl buffer (100 mM, pH 8.5), a fixed concentration of CMP-Neu5Ac (1 mM), different concentrations of LacβMU (0.2, 0.5, 1.0, 2.0, 5.0, and 9.0 mM) and the mutant proteins (2 μg mL^−1 of E271F, 2 μg mL^−1 of R313Y, and 1.6 μg mL^−1 of E271F/R313Y). All reactions were allowed to proceed at 37° C. for 5 min (E271F), 7 min (R313Y), and 10 min (E271F/R313Y). The apparent kinetic parameters were obtained by fitting the experimental data (the average values of duplicate assay results) into the Michaelis-Menten equation using Grafit 5.0.
(§2) To obtain the apparent kinetic parameters of CMP-Neu5Ac as the donor for the α2-3-sialyltransferase activity, the kinetic assays were performed in duplicate in reaction mixtures of 10 μL containing Tris-HCl buffer (100 mM, pH 8.5), a fixed concentration of LacβMU (1 mM), different concentrations of CMP-Neu5Ac (0.1, 0.2, 0.5, 1.0, 2.0, 5.0, 10.0 and 20.0 mM) and the mutant proteins (2 μg mL^−1 of E271F, 2 μg mL^−1 of R313Y, and 1.6 μg mL^−1 of E271F/R313Y). All reactions were allowed to proceed at 37° C. for 2 min (E271F), 7 min (R313Y), and 5 min (E271F/R313Y). The apparent kinetic parameters were obtained by fitting the experimental data (the average values of duplicate assay results) into the Michaelis-Menten equation using Grafit 5.0.
(§3) All the sialidase and α2-3-sialyltransferase assays were performed in an HPLC system. Reactions were stopped by adding 10 μL of ethanol. After necessary dilutions were performed to adjust the concentrations of the fluorescent-labeled compounds, the samples were then kept on ice until aliquots of 8 μL were injected and analyzed by a Shimadzu LC-6AD system equipped with a membrane on-line degasser, a temperature control unit, and a fluorescence detector (Shimadzu RF-10AXL). A reverse-phase Premier C18 column (250×4.6 mm i.d., 5 μm particle size, Shimadzu) protected with a C18 guard column cartridge was used. The mobile phase was 25% acetonitrile. The fluorescent compounds LacβMU and Neu5Acα2-3LacβMU were detected by excitation at 325 nm and emission at 372 nm.

In assay [4] the target is Pasteurella multocida PmST1 double mutant E271F/R313Y of SEQ ID NO: 13 (E247F/R289Y of Δ24PmST1, SEQ ID NO: 11) (Pasteurella multocida, UniProt Q15KI8, E271F/R313Y). The assay is described as above. It is filed as biochemical. To be noted: apparent, donor, LacβMU 1 mM, Tris-HCl pH 8.5, 37° C. Here is the method:
as §1, §2, §3

Assay [5] has as its target Pasteurella multocida PmST1 mutant E271F of SEQ ID NO: 13 (E247F of Δ24PmST1, SEQ ID NO: 7) (Pasteurella multocida, UniProt Q15KI8, E271F). Described as above. Particulars: apparent, donor, LacβMU 1 mM, Tris-HCl pH 8.5, 37° C. It counts as biochemical. Here is the method:
as §1, §2, §3

Each structure is given as a SMILES string.

Here are results for one compound from patent US9255257B2, “PmST1 mutants for chemoenzymatic synthesis of sialyl lewis X compounds” (THE REGENTS OF THE UNIVERSITY OF CALIFORNIA, priority 2011, dated 2016).

`CC(=O)N[C@H]1[C@H]([C@H](O)[C@H](O)CO)O[C@](OP(=O)(O)OC[C@H]2O[C@@H](n3ccc(N)nc3=O)[C@H](O)[C@@H]2O)(C(=O)O)C[C@@H]1O` [CMP-Neu5Ac]: the kcat result in assay [1] was “(2.5 ± 0.1) × 10^−2 s^−1”; in assay [2], 2.1 ± 0.1 s⁻¹. The figures for the “kcat (CMP-Neu5Ac)” value in assay [3], in assay [4] and in assay [5] were 19 ± 1 s⁻¹, 23 ± 1 s⁻¹ and 26 ± 1 s⁻¹, respectively.
